Each block holds one molecule with its values, some of them ahead of it.
System: 885512-296-R-J2-PDC complex spheroid growth, % test/control
Assay: Anticancer human tumor 885512-296-R-J2-PDC patient-derived breast carcinoma cell line growth inhibition [AhR]
Settings: for IC50: curve of first compound; for viability, T/C: stronger effect = lower value
Summary of the method: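 Spheroids combined tumor cells with HUVEC endothelial cells and human MSCs as stroma. AhR antagonists were paired with standard or investigational drugs, each dosed in half-log steps down from near clinical Cmax, or from 10 microM where Cmax was unknown.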

[1] = second compound 0.1 µM, first compound 0.0316 µM
[2] = second compound 0.1 µM, first compound 0.1 µM
[3] = second compound 0.1 µM, first compound 0.316 µM
[4] = second compound 0.1 µM, first compound 1 µM
[5] = second compound 0.1 µM, first compound 3.16 µM
[6] = second compound 0.1 µM, first compound 10 µM
[7] = second compound 0.316 µM, first compound 0.0316 µM
[8] = second compound 0.316 µM, first compound 0.1 µM
[9] = second compound 0.316 µM, first compound 0.316 µM
[10] = second compound 0.316 µM, first compound 1 µM
[11] = second compound 0.316 µM, first compound 3.16 µM
[12] = second compound 0.316 µM, first compound 10 µM
[13] = second compound 1 µM, first compound 0.0316 µM
[14] = second compound 1 µM, first compound 0.1 µM
[15] = second compound 1 µM, first compound 0.316 µM
[16] = second compound 1 µM, first compound 1 µM
[17] = second compound 1 µM, first compound 3.16 µM
[18] = second compound 1 µM, first compound 10 µM
[19] = second compound 3.16 µM, first compound 0.0316 µM
[20] = second compound 3.16 µM, first compound 0.1 µM
[21] = second compound 3.16 µM, first compound 0.316 µM
[22] = second compound 3.16 µM, first compound 1 µM
[23] = second compound 3.16 µM, first compound 3.16 µM
[24] = second compound 3.16 µM, first compound 10 µM
[25] = second compound 10 µM, first compound 0.0316 µM
[26] = second compound 10 µM, first compound 0.1 µM
[27] = second compound 10 µM, first compound 0.316 µM
[28] = second compound 10 µM, first compound 1 µM
[29] = second compound 10 µM, first compound 3.16 µM
[30] = second compound 10 µM, first compound 10 µM
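Note: spheroids exposed to compounds for seven days.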

IC50 (second compound 0.1 µM): 5310 nM | IC50 (second compound 0.316 µM): 5220 nM | IC50 (second compound 1 µM): 3860 nM | IC50 (second compound 3.16 µM): < 31.6 nM | IC50 (second compound 10 µM): < 31.6 nM
Structure (SMILES): CC1(C)CCC(CN2CCN(c3ccc(C(=O)NS(=O)(=O)c4ccc(NCC5CCOCC5)c([N+](=O)[O-])c4)c(Oc4cnc5[nH]ccc5c4)c3)CC2)=C(c2ccc(Cl)cc2)C1 + Cc1cncc(-c2nc(NCCc3c[nH]c4ccccc34)c3ncn(C(C)C)c3n2)c1
viability, T/C [1]: 108% | viability, T/C [2]: 120% | viability, T/C [3]: 100% | viability, T/C [4]: 97.9% | viability, T/C [5]: 73% | viability, T/C [6]: 21.9% | viability, T/C [7]: 95.8% | viability, T/C [8]: 98.3% | viability, T/C [9]: 97% | viability, T/C [10]: 100% | viability, T/C [11]: 68.4% | viability, T/C [12]: 26.2% | viability, T/C [13]: 87.5% | viability, T/C [14]: 84.5% | viability, T/C [15]: 77.8% | viability, T/C [16]: 71.8% | viability, T/C [17]: 57% | viability, T/C [18]: 23.2% | viability, T/C [19]: 42.2% | viability, T/C [20]: 49.5% | viability, T/C [21]: 50.7% | viability, T/C [22]: 41.4% | viability, T/C [23]: 39.7% | viability, T/C [24]: 29.8% | viability, T/C [25]: 12.7% | viability, T/C [26]: 13.7% | viability, T/C [27]: 14.3% | viability, T/C [28]: 12.4% | viability, T/C [29]: 13.8% | viability, T/C [30]: 10.1%

IC50 (second compound 0.1 µM): > 3000 nM | IC50 (second compound 0.316 µM): > 3000 nM | IC50 (second compound 1 µM): > 3000 nM | IC50 (second compound 3.16 µM): > 3000 nM | IC50 (second compound 10 µM): < 9.49 nM
Structure (SMILES): CCN(c1cc(-c2ccc(CN3CCOCC3)cc2)cc(C(=O)NCc2c(C)cc(C)[nH]c2=O)c1C)C1CCOCC1 + Cc1cncc(-c2nc(NCCc3c[nH]c4ccccc34)c3ncn(C(C)C)c3n2)c1
viability, T/C (second compound 0.1 µM, first compound 0.00949 µM): 98.8% | viability, T/C (second compound 0.1 µM, first compound 0.03 µM): 104% | viability, T/C (second compound 0.1 µM, first compound 0.0949 µM): 91.3% | viability, T/C (second compound 0.1 µM, first compound 0.3 µM): 87.8% | viability, T/C (second compound 0.1 µM, first compound 0.949 µM): 94.8% | viability, T/C (second compound 0.1 µM, first compound 3 µM): 83.3% | viability, T/C (second compound 0.316 µM, first compound 0.00949 µM): 102% | viability, T/C (second compound 0.316 µM, first compound 0.03 µM): 105% | viability, T/C (second compound 0.316 µM, first compound 0.0949 µM): 98% | viability, T/C (second compound 0.316 µM, first compound 0.3 µM): 94.9% | viability, T/C (second compound 0.316 µM, first compound 0.949 µM): 88.5% | viability, T/C (second compound 0.316 µM, first compound 3 µM): 74.8% | viability, T/C (second compound 1 µM, first compound 0.00949 µM): 91.4% | viability, T/C (second compound 1 µM, first compound 0.03 µM): 93.5% | viability, T/C (second compound 1 µM, first compound 0.0949 µM): 85.7% | viability, T/C (second compound 1 µM, first compound 0.3 µM): 73.6% | viability, T/C (second compound 1 µM, first compound 0.949 µM): 72.8% | viability, T/C (second compound 1 µM, first compound 3 µM): 80.1% | viability, T/C (second compound 3.16 µM, first compound 0.00949 µM): 58.6% | viability, T/C (second compound 3.16 µM, first compound 0.03 µM): 62.1% | viability, T/C (second compound 3.16 µM, first compound 0.0949 µM): 59.9% | viability, T/C (second compound 3.16 µM, first compound 0.3 µM): 58.8% | viability, T/C (second compound 3.16 µM, first compound 0.949 µM): 53.5% | viability, T/C (second compound 3.16 µM, first compound 3 µM): 54.8% | viability, T/C (second compound 10 µM, first compound 0.00949 µM): 21.8% | viability, T/C (second compound 10 µM, first compound 0.03 µM): 24.6% | viability, T/C (second compound 10 µM, first compound 0.0949 µM): 24.4% | viability, T/C (second compound 10 µM, first compound 0.3 µM): 18.8% | viability, T/C (second compound 10 µM, first compound 0.949 µM): 13% | viability, T/C (second compound 10 µM, first compound 3 µM): 8.18%

IC50 (second compound 0.1 µM): > 100 nM | IC50 (second compound 0.316 µM): > 100 nM | IC50 (second compound 1 µM): > 100 nM | IC50 (second compound 3.16 µM): 35.2 nM | IC50 (second compound 10 µM): < 0.316 nM
Structure (SMILES): Cn1ncnc1C1c2n[nH]c(=O)c3cc(F)cc(c23)NC1c1ccc(F)cc1 (stereo not given) + Cc1cncc(-c2nc(NCCc3c[nH]c4ccccc34)c3ncn(C(C)C)c3n2)c1
viability, T/C (second compound 0.1 µM, first compound 0.000316 µM): 116% | viability, T/C (second compound 0.1 µM, first compound 0.001 µM): 112% | viability, T/C (second compound 0.1 µM, first compound 0.00316 µM): 99.8% | viability, T/C (second compound 0.1 µM, first compound 0.01 µM): 99.1% | viability, T/C [1]: 82.4% | viability, T/C [2]: 56.2% | viability, T/C (second compound 0.316 µM, first compound 0.000316 µM): 120% | viability, T/C (second compound 0.316 µM, first compound 0.001 µM): 108% | viability, T/C (second compound 0.316 µM, first compound 0.00316 µM): 105% | viability, T/C (second compound 0.316 µM, first compound 0.01 µM): 87.4% | viability, T/C [7]: 76% | viability, T/C [8]: 53.5% | viability, T/C (second compound 1 µM, first compound 0.000316 µM): 87.1% | viability, T/C (second compound 1 µM, first compound 0.001 µM): 99.5% | viability, T/C (second compound 1 µM, first compound 0.00316 µM): 79.4% | viability, T/C (second compound 1 µM, first compound 0.01 µM): 74.9% | viability, T/C [13]: 68.3% | viability, T/C [14]: 51.8% | viability, T/C (second compound 3.16 µM, first compound 0.000316 µM): 55.2% | viability, T/C (second compound 3.16 µM, first compound 0.001 µM): 58.4% | viability, T/C (second compound 3.16 µM, first compound 0.00316 µM): 54.6% | viability, T/C (second compound 3.16 µM, first compound 0.01 µM): 54.5% | viability, T/C [19]: 49.2% | viability, T/C [20]: 45.7% | viability, T/C (second compound 10 µM, first compound 0.000316 µM): 23.8% | viability, T/C (second compound 10 µM, first compound 0.001 µM): 21.6% | viability, T/C (second compound 10 µM, first compound 0.00316 µM): 21.3% | viability, T/C (second compound 10 µM, first compound 0.01 µM): 18.1% | viability, T/C [25]: 22.1% | viability, T/C [26]: 21.6%

IC50 (second compound 0.1 µM): 90.4 nM | IC50 (second compound 0.316 µM): 89.4 nM | IC50 (second compound 1 µM): 77.4 nM | IC50 (second compound 3.16 µM): 43.6 nM | IC50 (second compound 10 µM): < 31.6 nM
Structure (SMILES): NS(=O)(=O)OCC1CC(n2ccc3c(NC4CCc5ccccc54)ncnc32)CC1O (stereo not given) + Cc1cncc(-c2nc(NCCc3c[nH]c4ccccc34)c3ncn(C(C)C)c3n2)c1
viability, T/C [1]: 96.2% | viability, T/C [2]: 45.6% | viability, T/C [3]: 16.5% | viability, T/C [4]: 8.26% | viability, T/C [5]: 5.94% | viability, T/C [6]: 6.36% | viability, T/C [7]: 89.7% | viability, T/C [8]: 45.6% | viability, T/C [9]: 17.4% | viability, T/C [10]: 6.34% | viability, T/C [11]: 6.04% | viability, T/C [12]: 5.52% | viability, T/C [13]: 81.3% | viability, T/C [14]: 41% | viability, T/C [15]: 13.9% | viability, T/C [16]: 5.67% | viability, T/C [17]: 4.18% | viability, T/C [18]: 4.92% | viability, T/C [19]: 58.5% | viability, T/C [20]: 28% | viability, T/C [21]: 8.09% | viability, T/C [22]: 3.67% | viability, T/C [23]: 3.02% | viability, T/C [24]: 2.73% | viability, T/C [25]: 10.3% | viability, T/C [26]: 8.3% | viability, T/C [27]: 3.54% | viability, T/C [28]: 2.33% | viability, T/C [29]: 1.76% | viability, T/C [30]: 1.73%

From PubChem BioAssay AID1919006 (Molecular Pharmacology Branch, DTP, NCI, 2023)
